Measured values published in PMC6704710, “Preclinical evaluation of 3D185, a novel potent inhibitor of FGFR1/2/3 and CSF-1R, in FGFR-dependent and macrophage-dominant cancer models” (Journal of Experimental & Clinical Cancer Research : CR, 2019).

Key:
[1] = molecular target: T1, BTK(R28H)(h) (Homo sapiens, UniProt Q06187, R28H); test: Eurofins kinase panel; format: biochemical; conditions: read-out: Inhibition rate (%)
T1 construct: purchased Eurofins (KinaseProfiler)

[2] = molecular target: T2, WNK3(h) (Homo sapiens, UniProt Q9BYP7); test: Eurofins kinase panel; format: biochemical; conditions: read-out: Inhibition rate (%)
T2 construct: purchased Eurofins (KinaseProfiler)

[3] = molecular target: T3, Lyn(h) (Homo sapiens, UniProt P07948); test: Eurofins kinase panel; format: biochemical; conditions: read-out: Inhibition rate (%)
T3 construct: purchased Eurofins (KinaseProfiler)

[4] = molecular target: T4, WNK2(h) (Homo sapiens, UniProt Q9Y3S1); test: Eurofins kinase panel; format: biochemical; conditions: read-out: Inhibition rate (%)
T4 construct: purchased Eurofins (KinaseProfiler)

[5] = molecular target: T5, DAPK1(h) (Homo sapiens, UniProt P53355); test: Eurofins kinase panel; format: biochemical; conditions: read-out: Inhibition rate (%)
T5 construct: purchased Eurofins (KinaseProfiler)

[6] = molecular target: T6, Pim-1(h) (Homo sapiens, UniProt P11309); test: Eurofins kinase panel; format: biochemical; conditions: read-out: Inhibition rate (%)
T6 construct: purchased Eurofins (KinaseProfiler)

[7] = molecular target: T7, DMPK(h) (Homo sapiens, UniProt Q09013); test: Eurofins kinase panel; format: biochemical; conditions: read-out: Inhibition rate (%)
T7 construct: purchased Eurofins (KinaseProfiler)
T7 sequence (Q09013 1-629): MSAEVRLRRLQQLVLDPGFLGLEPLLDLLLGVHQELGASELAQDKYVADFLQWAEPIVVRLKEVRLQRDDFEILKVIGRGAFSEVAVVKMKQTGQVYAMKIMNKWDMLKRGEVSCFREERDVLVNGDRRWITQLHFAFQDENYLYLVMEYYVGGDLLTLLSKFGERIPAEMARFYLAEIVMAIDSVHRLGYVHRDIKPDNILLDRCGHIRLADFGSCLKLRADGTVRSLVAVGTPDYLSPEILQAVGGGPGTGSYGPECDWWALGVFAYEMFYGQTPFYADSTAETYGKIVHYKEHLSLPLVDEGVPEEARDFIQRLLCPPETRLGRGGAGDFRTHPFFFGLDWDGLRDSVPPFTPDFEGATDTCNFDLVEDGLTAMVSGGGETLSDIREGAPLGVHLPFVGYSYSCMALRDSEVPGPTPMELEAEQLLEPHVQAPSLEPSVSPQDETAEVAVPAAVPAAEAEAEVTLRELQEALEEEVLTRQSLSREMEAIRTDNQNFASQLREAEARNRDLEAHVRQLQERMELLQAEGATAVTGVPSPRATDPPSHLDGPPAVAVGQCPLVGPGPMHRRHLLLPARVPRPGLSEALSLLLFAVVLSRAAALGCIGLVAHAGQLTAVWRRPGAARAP

[8] = molecular target: T8, ALK2(h) (Homo sapiens, UniProt Q04771); test: Eurofins kinase panel; format: biochemical; conditions: read-out: Inhibition rate (%)
T8 construct: purchased Eurofins (KinaseProfiler)
T8 sequence (Q04771 21-509): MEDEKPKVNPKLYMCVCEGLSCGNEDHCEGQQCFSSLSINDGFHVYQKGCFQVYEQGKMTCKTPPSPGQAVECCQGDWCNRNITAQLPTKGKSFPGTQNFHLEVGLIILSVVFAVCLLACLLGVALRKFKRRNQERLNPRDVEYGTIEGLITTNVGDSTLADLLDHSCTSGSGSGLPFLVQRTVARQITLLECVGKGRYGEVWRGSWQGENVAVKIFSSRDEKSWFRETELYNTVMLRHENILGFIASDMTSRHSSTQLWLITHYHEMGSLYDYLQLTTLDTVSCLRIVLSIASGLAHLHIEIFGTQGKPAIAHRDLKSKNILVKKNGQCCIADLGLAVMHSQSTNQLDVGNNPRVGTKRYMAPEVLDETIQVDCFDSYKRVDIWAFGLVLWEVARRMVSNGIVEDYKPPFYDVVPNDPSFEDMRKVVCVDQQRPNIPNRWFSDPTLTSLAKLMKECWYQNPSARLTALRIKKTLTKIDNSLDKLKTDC

[9] = system: KG-1; test: Cell proliferation assay; format: cell-based, human; conditions: Homo sapiens, KG-1; 72 h, mean ± SD
Method: (§1) The cancer cell lines indicated in Figure 3 were seeded in 96-well plates at a low density in growth medium. The next day, appropriate controls or the designated concentrations of the compounds were added to each well, and the cells were incubated for 72 h. HUVECs (passage 3) were seeded in 96-well plates in growth medium overnight and transferred to serum-free medium for 24 h. The following day, appropriate controls or the designated concentrations of the compounds were added to each well, and 100 ng/mL growth factor (bFGF or VEGF) was added to the indicated wells. The cells were incubated for 48 h. Finally, cell proliferation was determined using a sulforhodamine B (SRB) assay or a cell counting kit-8 (CCK-8) assay. […] IC50 values for proliferation curves were calculated using a 4-parameter logistic nonlinear regression model with SoftMax Pro Software (Molecular Devices, San Jose, USA).

[10] = system: SNU16; test: Cell proliferation assay; format: cell-based, human; conditions: Homo sapiens, SNU-16; 72 h, mean ± SD
Method: as §1

[11] = system: SUM52PE; test: Cell proliferation assay; format: cell-based, human; conditions: Homo sapiens, SUM52PE; 72 h, mean ± SD
Method: as §1

[12] = system: UMUC14; test: Cell proliferation assay; format: cell-based, human; conditions: Homo sapiens, UMUC14; 72 h, mean ± SD
Method: as §1

[13] = system: OPM2; test: Cell proliferation assay; format: cell-based, human; conditions: Homo sapiens, OPM-2; 72 h, mean ± SD
Method: as §1

[14] = system: KATOIII; test: Cell proliferation assay; format: cell-based, human; conditions: Homo sapiens, KATO III; 72 h, mean ± SD
Method: as §1

[15] = system: RT112; test: Cell proliferation assay; format: cell-based, human; conditions: Homo sapiens, RT-112; 72 h, mean ± SD
Method: as §1

[16] = system: HUH7; test: Cell proliferation assay; format: cell-based, human; conditions: Homo sapiens, Huh-7; 72 h, mean ± SD
Method: as §1

[17] = system: NCI-H1581; test: Cell proliferation assay; format: cell-based, human; conditions: Homo sapiens, NCI-H1581; 72 h, mean ± SD
Method: as §1

[18] = system: NCI-H716; test: Cell proliferation assay; format: cell-based, human; conditions: Homo sapiens, NCI-H716; 72 h, mean ± SD
Method: as §1

T1 sequence (Q06187 whole entry R28H): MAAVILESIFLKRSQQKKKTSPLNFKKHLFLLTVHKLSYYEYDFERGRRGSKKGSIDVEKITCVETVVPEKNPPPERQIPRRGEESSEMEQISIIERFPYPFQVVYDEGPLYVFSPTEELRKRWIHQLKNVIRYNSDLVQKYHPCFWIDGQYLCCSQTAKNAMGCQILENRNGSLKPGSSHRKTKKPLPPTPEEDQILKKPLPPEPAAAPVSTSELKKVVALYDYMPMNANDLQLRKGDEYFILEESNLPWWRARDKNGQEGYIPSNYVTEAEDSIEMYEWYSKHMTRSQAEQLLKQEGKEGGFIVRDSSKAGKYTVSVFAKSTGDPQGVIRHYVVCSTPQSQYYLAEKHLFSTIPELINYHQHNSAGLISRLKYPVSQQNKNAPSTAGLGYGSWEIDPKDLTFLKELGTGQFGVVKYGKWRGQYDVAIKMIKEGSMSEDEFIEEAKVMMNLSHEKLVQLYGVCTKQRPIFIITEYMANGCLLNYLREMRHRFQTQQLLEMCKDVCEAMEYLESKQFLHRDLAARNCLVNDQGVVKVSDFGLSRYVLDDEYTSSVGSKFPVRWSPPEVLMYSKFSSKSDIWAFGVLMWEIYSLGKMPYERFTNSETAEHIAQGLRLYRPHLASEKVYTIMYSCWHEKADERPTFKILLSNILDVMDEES
T5 sequence (P53355 whole entry): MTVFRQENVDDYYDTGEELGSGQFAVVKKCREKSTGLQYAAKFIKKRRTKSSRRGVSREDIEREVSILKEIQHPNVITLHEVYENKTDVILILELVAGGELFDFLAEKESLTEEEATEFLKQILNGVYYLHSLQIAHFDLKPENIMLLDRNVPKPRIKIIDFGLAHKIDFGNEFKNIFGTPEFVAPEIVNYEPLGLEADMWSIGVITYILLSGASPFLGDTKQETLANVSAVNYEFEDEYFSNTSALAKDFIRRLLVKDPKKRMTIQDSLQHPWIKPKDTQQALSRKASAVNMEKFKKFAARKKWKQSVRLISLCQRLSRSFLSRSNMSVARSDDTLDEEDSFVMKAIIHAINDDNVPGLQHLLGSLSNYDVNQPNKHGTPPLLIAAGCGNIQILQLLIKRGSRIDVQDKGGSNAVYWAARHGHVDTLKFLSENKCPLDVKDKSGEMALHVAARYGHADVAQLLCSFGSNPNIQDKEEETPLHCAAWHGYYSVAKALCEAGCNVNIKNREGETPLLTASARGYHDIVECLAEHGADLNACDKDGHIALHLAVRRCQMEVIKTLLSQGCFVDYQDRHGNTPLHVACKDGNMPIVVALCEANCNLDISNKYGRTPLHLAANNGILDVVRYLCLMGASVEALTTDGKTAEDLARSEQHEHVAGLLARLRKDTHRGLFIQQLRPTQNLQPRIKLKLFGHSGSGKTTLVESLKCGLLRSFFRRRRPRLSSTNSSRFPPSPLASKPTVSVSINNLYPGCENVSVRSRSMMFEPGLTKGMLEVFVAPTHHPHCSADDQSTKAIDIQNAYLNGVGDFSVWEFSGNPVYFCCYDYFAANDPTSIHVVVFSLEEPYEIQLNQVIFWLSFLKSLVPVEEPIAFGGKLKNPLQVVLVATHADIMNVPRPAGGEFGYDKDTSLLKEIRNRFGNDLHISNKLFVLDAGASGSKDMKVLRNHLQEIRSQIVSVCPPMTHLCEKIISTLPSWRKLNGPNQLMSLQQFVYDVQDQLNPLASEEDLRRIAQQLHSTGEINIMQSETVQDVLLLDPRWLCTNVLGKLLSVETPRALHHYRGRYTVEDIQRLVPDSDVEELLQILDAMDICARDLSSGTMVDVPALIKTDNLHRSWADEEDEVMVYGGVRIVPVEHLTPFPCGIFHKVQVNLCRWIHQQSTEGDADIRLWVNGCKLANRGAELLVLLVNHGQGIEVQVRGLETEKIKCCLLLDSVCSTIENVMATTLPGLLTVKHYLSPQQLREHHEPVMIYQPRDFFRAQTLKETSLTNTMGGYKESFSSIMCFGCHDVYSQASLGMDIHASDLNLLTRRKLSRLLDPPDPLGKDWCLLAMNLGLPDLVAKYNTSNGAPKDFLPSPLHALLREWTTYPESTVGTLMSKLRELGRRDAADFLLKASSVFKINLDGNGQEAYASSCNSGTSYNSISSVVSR
T4 sequence (Q9Y3S1 whole entry): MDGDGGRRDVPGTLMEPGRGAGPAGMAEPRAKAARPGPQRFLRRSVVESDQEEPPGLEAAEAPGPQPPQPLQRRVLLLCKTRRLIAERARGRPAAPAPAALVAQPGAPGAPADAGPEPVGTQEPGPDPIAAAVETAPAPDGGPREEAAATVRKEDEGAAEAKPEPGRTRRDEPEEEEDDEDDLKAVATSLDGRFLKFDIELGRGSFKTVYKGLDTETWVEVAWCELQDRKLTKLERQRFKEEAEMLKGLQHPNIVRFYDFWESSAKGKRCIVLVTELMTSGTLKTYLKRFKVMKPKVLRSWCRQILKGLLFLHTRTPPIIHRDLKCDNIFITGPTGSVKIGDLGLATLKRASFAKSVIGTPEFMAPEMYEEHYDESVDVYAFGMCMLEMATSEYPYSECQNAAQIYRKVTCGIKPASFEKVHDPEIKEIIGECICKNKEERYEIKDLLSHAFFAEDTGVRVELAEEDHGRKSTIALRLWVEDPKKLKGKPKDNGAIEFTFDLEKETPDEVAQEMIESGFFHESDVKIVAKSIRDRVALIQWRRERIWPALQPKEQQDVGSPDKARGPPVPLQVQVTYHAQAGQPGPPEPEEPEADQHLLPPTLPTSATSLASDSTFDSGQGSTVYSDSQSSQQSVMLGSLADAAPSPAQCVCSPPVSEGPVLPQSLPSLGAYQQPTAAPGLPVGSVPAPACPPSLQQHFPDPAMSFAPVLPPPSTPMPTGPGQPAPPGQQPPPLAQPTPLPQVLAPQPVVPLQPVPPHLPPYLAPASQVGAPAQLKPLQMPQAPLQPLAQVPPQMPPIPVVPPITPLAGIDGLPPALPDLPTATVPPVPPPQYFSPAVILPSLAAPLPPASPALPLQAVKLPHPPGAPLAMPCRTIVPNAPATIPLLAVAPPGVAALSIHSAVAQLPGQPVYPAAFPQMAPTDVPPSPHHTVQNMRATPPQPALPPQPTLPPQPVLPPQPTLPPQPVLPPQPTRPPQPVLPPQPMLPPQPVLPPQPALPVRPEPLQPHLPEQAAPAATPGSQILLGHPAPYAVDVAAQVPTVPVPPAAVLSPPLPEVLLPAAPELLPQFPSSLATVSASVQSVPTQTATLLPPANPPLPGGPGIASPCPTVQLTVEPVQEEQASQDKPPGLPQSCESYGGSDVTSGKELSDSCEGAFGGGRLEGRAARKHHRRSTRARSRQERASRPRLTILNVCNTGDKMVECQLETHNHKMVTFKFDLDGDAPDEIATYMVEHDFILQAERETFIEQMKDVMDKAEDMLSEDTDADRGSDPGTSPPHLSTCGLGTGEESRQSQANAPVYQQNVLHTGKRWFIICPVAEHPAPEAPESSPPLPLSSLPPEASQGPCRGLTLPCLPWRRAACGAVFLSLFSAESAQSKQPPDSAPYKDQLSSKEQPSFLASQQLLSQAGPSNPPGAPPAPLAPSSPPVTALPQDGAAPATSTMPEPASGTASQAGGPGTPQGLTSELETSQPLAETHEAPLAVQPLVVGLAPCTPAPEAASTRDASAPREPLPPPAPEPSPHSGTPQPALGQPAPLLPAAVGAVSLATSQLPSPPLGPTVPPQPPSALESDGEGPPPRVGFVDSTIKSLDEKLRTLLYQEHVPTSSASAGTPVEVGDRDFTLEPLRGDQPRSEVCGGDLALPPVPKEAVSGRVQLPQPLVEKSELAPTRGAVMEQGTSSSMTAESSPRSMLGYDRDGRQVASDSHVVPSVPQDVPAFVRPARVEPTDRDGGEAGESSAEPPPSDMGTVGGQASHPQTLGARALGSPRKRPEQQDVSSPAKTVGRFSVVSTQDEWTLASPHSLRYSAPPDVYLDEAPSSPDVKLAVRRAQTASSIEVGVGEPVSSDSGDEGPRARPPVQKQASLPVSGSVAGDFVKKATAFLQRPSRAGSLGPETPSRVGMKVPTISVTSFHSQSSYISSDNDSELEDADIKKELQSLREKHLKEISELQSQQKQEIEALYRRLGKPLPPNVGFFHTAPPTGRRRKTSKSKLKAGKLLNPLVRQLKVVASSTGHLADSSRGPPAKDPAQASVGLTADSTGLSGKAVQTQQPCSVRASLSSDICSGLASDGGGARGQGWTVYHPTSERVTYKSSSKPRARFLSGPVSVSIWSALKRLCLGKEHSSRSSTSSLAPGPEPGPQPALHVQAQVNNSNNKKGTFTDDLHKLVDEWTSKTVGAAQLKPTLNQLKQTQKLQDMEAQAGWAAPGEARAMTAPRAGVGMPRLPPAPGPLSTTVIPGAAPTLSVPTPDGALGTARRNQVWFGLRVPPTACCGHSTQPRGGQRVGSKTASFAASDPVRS
T6 sequence (P11309 whole entry): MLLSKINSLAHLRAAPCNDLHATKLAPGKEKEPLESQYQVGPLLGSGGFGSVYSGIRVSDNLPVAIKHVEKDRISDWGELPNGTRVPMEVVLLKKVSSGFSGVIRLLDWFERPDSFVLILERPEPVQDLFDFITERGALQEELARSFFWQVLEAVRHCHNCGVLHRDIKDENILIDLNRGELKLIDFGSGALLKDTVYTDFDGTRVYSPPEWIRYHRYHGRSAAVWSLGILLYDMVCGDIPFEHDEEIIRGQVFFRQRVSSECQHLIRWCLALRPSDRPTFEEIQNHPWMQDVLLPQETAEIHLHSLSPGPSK

COc1cc(OC)c(Cl)c(-c2ccc3c(NC(=O)c4ccc(N5CCNC(C)(C)C5)cc4)n[nH]c3n2)c1Cl [3D185]
inhibition at 0.01 µM ([1]; 10 nM): -3%
inhibition at 0.1 µM ([1]; 100 nM): -2%
inhibition at 1 µM ([1]; 1000 nM): -4%
inhibition at 0.01 µM ([2]; 10 nM): -7%
inhibition at 0.1 µM ([2]; 100 nM): 12%
inhibition at 1 µM ([2]; 1000 nM): 71%
inhibition at 0.01 µM ([3]; 10 nM): 8%
inhibition at 0.1 µM ([3]; 100 nM): 81%
inhibition at 1 µM ([3]; 1000 nM): 98%
inhibition at 0.01 µM ([4]; 10 nM): 0%
inhibition at 0.1 µM ([4]; 100 nM): -1%
inhibition at 1 µM ([4]; 1000 nM): 22%
inhibition at 0.01 µM ([5]; 10 nM): 5%
inhibition at 0.1 µM ([5]; 100 nM): 13%
inhibition at 1 µM ([5]; 1000 nM): 19%
inhibition at 0.01 µM ([6]; 10 nM): -5%
inhibition at 0.1 µM ([6]; 100 nM): 13%
inhibition at 1 µM ([6]; 1000 nM): 9%
inhibition at 0.01 µM ([7]; 10 nM): 2%
inhibition at 0.1 µM ([7]; 100 nM): 3%
inhibition at 1 µM ([7]; 1000 nM): 2%
inhibition at 0.01 µM ([8]; 10 nM): -10%
inhibition at 0.1 µM ([8]; 100 nM): -15%
inhibition at 1 µM ([8]; 1000 nM): -4%
IC50 [9]: 2 ± 0.4 nM
IC50 [10]: 0.9 ± 0.1 nM
IC50 [11]: 2 nM
IC50 [12]: 30.9 ± 5.3 nM
IC50 [13]: 19.2 ± 4.3 nM
IC50 [14]: 11.3 ± 0.2 nM
IC50 [15]: 36.8 ± 6.8 nM
IC50 [16]: 49.8 ± 1.5 nM
IC50 [17]: 17.3 ± 5.7 nM
IC50 [18]: 3 ± 0.4 nM
